In patent US20250034207A1, “PEPTIDES AND PEPTIDE CONJUGATES FOR TREATING MENTAL DISORDERS” (Kyoto University, priority 2016, published 2025):
No end group written: not given here.

System: ddY mice
Assay: Tail suspension test in mice after oral administration
Type: in vivo
Details: for Activity Rating: rating excellent, good, moderate or low from percent reduction of control immobility, 0.3 mg/kg; for % of SEQ ID NO: 1 activity: reduction of control immobility relative to SEQ ID NO:1, 0.3 mg/kg oral, average where tested more than once; for Immobility time for peptides dosed at 0.3 mg/kg as percent of control immobility time, Example 16: Example 16 (retest)
Procedure: The tail suspension test is an experimental method used to screen potential antidepressant drugs (Can et al., 2012, J Vis Exp., 59: e3769). In the test as implemented in the Examples, a test substance is orally administered to mice (ddY mice, males, 24˜30 g) and 30 minutes later the mice are suspended by their tails for six minutes. The amount of time that a mouse is immobile (i.e. is not displaying escape behavior) during the six minutes is measured to provide an immobility time. The administration of anti-depressant drugs such as imipramine reduces immobility time. Therefore, if a reduction of immobility time is observed when testing a test substance, it can be concluded that the test substance has anti-depressant properties. Immobility is considered a despair state, and, therefore, a reduction of immobility time also indicates an increase in motivation (i.e., that the test substance has motivation-increasing properties).

Substance | Activity Rating | % of SEQ ID NO: 1 activity [%] | also measured
AQQSY (Designed peptide) [SEQ ID NO:5] | Moderate | 26.16 | Immobility time for peptides dosed at 0.3 mg/kg as percent of control immobility time, Example 3 (FIG. 3B) (0.3 mg/kg oral): 86.87% of control immobility time
AQQSYW (Designed peptide) [SEQ ID NO:41] | Low | 5.32 | Immobility time for peptides dosed at 0.3 mg/kg as percent of control immobility time, Example 14 (0.3 mg/kg oral): 97.33% of control immobility time
ESFFLSSTQAQQSY (Designed peptide) [SEQ ID NO:42] | Low | −39.13 | Immobility time for peptides dosed at 0.3 mg/kg as percent of control immobility time, Example 15 (0.3 mg/kg oral): 119.64% of control immobility time
FFLSSTQAQQSYLQ (Designed peptide) [SEQ ID NO:44] | Good | 33.91 | Immobility time for peptides dosed at 0.3 mg/kg as percent of control immobility time, Example 15 (0.3 mg/kg oral): 82.98% of control immobility time; Immobility time compared to control (0.3 mg/kg oral, Example 15 (FIG. 11)): decreased
LSSTQ (Designed peptide) [SEQ ID NO:4] | Good | 36.80 | Immobility time for peptides dosed at 0.3 mg/kg as percent of control immobility time, Example 3 (FIG. 3B) (0.3 mg/kg oral): 81.53% of control immobility time
LSSTQAQQ (Designed peptide) [SEQ ID NO:27] | Good | 46.52 | Immobility time for peptides dosed at 0.3 mg/kg as percent of control immobility time, Example 13 (0.3 mg/kg oral): 76.65% of control immobility time
LSSTQAQQS (Designed peptide) [SEQ ID NO:2] | Moderate | 25.28 | Immobility time for peptides dosed at 0.3 mg/kg as percent of control immobility time, Example 3 (FIG. 3A) (0.3 mg/kg oral): 87.31% of control immobility time
LSSTQAQQSF (Designed peptide) [SEQ ID NO:7] | Excellent | 115.46 | Immobility time for peptides dosed at 0.3 mg/kg as percent of control immobility time, Example 6 (0.3 mg/kg oral): 42.05% of control immobility time
LSSTQAQQSW (Designed peptide) [SEQ ID NO:6] | Excellent | 122.71 | Immobility time for peptides dosed at 0.3 mg/kg as percent of control immobility time, Example 6 (0.3 mg/kg oral): 38.41% of control immobility time
LSSTQAQQSY (Designed peptide) [SEQ ID NO:1] | Excellent | 100 | Immobility time for peptides dosed at 0.3 mg/kg as percent of control immobility time, Example 1 (0.3 mg/kg oral, Example 1): 44.13% of control immobility time; Immobility time for peptides dosed at 0.3 mg/kg as percent of control immobility time, Example 3 (FIG. 3A) (0.3 mg/kg oral): 42.41% of control immobility time; Immobility time for peptides dosed at 0.3 mg/kg as percent of control immobility time, Example 3 (FIG. 3B) (0.3 mg/kg oral): 64.04% of control immobility time
LSSTQAQQSY-NH2 [SEQ ID NO:36, C-terminal amidated peptide conjugate] | Excellent | 89.12 | Immobility time for peptides dosed at 0.3 mg/kg as percent of control immobility time, Example 6 (0.3 mg/kg oral): 55.27% of control immobility time
LSSTQAQQSYLQGF (Designed peptide) [SEQ ID NO:43] | Low | −19.33 | Immobility time for peptides dosed at 0.3 mg/kg as percent of control immobility time, Example 15 (0.3 mg/kg oral): 109.70% of control immobility time
LSSTQAQQSYW (Designed peptide) [SEQ ID NO:37] | Excellent | 97.25 | Immobility time for peptides dosed at 0.3 mg/kg as percent of control immobility time, Example 14 (0.3 mg/kg oral): 39.08% of control immobility time; Immobility time for peptides dosed at 0.3 mg/kg as percent of control immobility time, Example 16 (0.3 mg/kg oral): 58.54% of control immobility time
SSTQAQQS (Designed peptide) [SEQ ID NO:28] | Excellent | 82.07 | Immobility time for peptides dosed at 0.3 mg/kg as percent of control immobility time, Example 13 (0.3 mg/kg oral): 60.34% of control immobility time; Immobility time for peptides dosed at 0.3 mg/kg as percent of control immobility time, Example 16 (0.3 mg/kg oral): 57.29% of control immobility time
SSTQAQQSY (Designed peptide) [SEQ ID NO:3] | Excellent | 64.81 | Immobility time for peptides dosed at 0.3 mg/kg as percent of control immobility time, Example 3 (FIG. 3A) (0.3 mg/kg oral): 67.47% of control immobility time
STQAQQSY (Designed peptide) [SEQ ID NO:29] | Good | 50.93 | Immobility time for peptides dosed at 0.3 mg/kg as percent of control immobility time, Example 13 (0.3 mg/kg oral): 74.44% of control immobility time
WLSSTQ (Designed peptide) [SEQ ID NO:40] | Good | 56.36 | Immobility time for peptides dosed at 0.3 mg/kg as percent of control immobility time, Example 14 (0.3 mg/kg oral): 55.34% of control immobility time; Immobility time for peptides dosed at 0.3 mg/kg as percent of control immobility time, Example 16 (0.3 mg/kg oral): 88.09% of control immobility time
WLSSTQAQQSY (Designed peptide) [SEQ ID NO:38] | Good | 55.25 | Immobility time for peptides dosed at 0.3 mg/kg as percent of control immobility time, Example 14 (0.3 mg/kg oral): 72.27% of control immobility time
WLSSTQAQQSYW (Designed peptide) [SEQ ID NO:39] | Moderate | 18.05 | Immobility time for peptides dosed at 0.3 mg/kg as percent of control immobility time, Example 14 (0.3 mg/kg oral): 90.94% of control immobility time
